In patent US12458643B2, “Antidepressant/anxiolytic drug in which PAC1 receptor antagonist is used” (KAGOSHIMA UNIVERSITY, priority 2020, dated 2025):

How the values were obtained:
Format in all cases: in vivo, mouse
[1] = system: single-restraint stress mice; experiment: Single-restraint stress-induced anxiety-like behavior, light-dark test; settings: 30 mg/kg i.p. 30 min before 30 min restraint; 10 min test
Method: Male C57BL/6J mice (8 to 12 weeks old) were acclimatized to a laboratory (illuminance: 330 lx) for 60 minutes. Then, a vehicle (10% DMSO solution; dissolved in saline; n=9), PA-8 (30 mg/kg; n=9) or PA-81004 (30 mg/kg; n=10) was intraperitoneally administered thereto (0.1 mL/10 g). After a lapse of 30 minutes after administration, restraint stress (stress caused by holding the mice in tubes of 2.8 cm in diameter with a hole for breathing) was applied thereto for 30 minutes. The light-dark test (10 min) was conducted from immediately after the completion of restraint. Mice that freely behaved in a home cage for 30 minutes without being held and without accessing water and food were used as a control (n=12). The results are shown in FIG. 10 (A: time spent in the light box, B: the number of transitions between the light and dark boxes; light box illuminance: 330 lx). The data was indicated by mean±standard error. **P<0.01, *P<0.05 (One-way ANOVA followed by Tukey-Kramer test). […] Male C57BL/6J mice (8 to 12 weeks old) were acclimatized to a laboratory (illuminance: 330 lx) for 60 minutes. Then, a vehicle (10% DMSO solution; dissolved in saline; n=11), PA-9 (30 mg/kg; n=8) or PA-915 (30 mg/kg; n=9) was intraperitoneally administered thereto (0.1 mL/10 g). After a lapse of 30 minutes after administration, restraint stress (stress caused by holding the mice in tubes of 2.8 cm in diameter with a hole for breathing) was applied thereto for 30 minutes. The light-dark test (10 min) was conducted from immediately after the completion of restraint. Mice that freely behaved in a home cage for 30 minutes without being held and without accessing water and food were used as a control (n=11). The results are shown in FIG. 12 (A: time spent in the light box, B: the number of transitions between the light and dark boxes; light box illuminance: 330 lx). The data was indicated by mean±standard error. **P<0.01, *P<0.05 (One-way ANOVA followed by Tukey-Kramer test).

[2] = system: normal mice; experiment: Open field test in normal mice; settings: normal male C57BL/6J mice, 30 mg/kg i.p., 60 min after administration, 10 min test
Method: The effects of PA-8 and PA-81004 on normal mice were evaluated by an open field test (test to measure spontaneous locomotion in a novel environment by exploiting the properties of mice to do exploratory behavior in such a novel environment, and using a 40 cm×40 cm box of 30 cm in height; spontaneous motor activity is measured from the total distance traveled; in this test, anxiety-like behavior is evaluated by exploiting the properties of mice to prefer to stay near walls and avoid light environments, and measuring a time spent in a center zone (20 cm×20 cm) or the number of entries thereto). Male C57BL/6J mice (8 to 12 weeks old) were acclimatized to a laboratory (illuminance: 40 lx) for 60 minutes. Then, a vehicle (10% DMSO solution; dissolved in saline; n=11), PA-8 (30 mg/kg; n=9) or PA-81004 (30 mg/kg; n=12) was intraperitoneally administered thereto (0.1 mL/10 g). After a lapse of 60 minutes after administration, the test was conducted for 10 minutes. The results are shown in FIG. 1 (A: total distance traveled, B: the number of center zone entries, C: time spent in the center zone). The effects of PA-9 and PA-915 on normal mice were evaluated by the open field test. Male C57BL/6J mice (8 to 12 weeks old) were acclimatized to a laboratory (illuminance: 40 lx) for 60 minutes. Then, a vehicle (10% DMSO solution; dissolved in saline; n=10), PA-9 (30 mg/kg; n=11) or PA-915 (30 mg/kg; n=10) was intraperitoneally administered thereto (0.1 mL/10 g). After a lapse of 60 minutes after administration, the test was conducted for 10 minutes. The results are shown in FIG. 5 (A: total distance traveled, B: the number of center zone entries, C: time spent in the center zone).

[3] = system: normal mice; experiment: Elevated plus maze test in normal mice; settings: normal male C57BL/6J mice, 30 mg/kg i.p., 60 min after administration, 5 min test
Method: The effects of PA-8 and PA-81004 on normal mice were evaluated by an elevated plus maze test (test that exploits the properties of mice to avoid heights and prefer to stay near walls; in this test, anxiety-like behavior is evaluated by placing the mice at the center of a maze disposed at a height of 50 cm in which a 26 cm long and 8 cm wide open arm without walls and a closed-arm with walls are disposed in a cross shape, and measuring a time spent in the open arm and the number of entries thereto).
Male C57BL/6J mice (8 to 12 weeks old) were acclimatized to a laboratory (illuminance: 50 lx) for 60 minutes. Then, a vehicle (10% DMSO solution; dissolved in saline; n=13), PA-8 (30 mg/kg; n=12) or PA-81004 (30 mg/kg; n=12) was intraperitoneally administered thereto (0.1 mL/10 g). After a lapse of 60 minutes after administration, the test was conducted for 5 minutes. The results are shown in FIG. 3 (A: total distance traveled, B: the number of open arm (course without walls) entries, C: time spent in the open arm).
The effects of PA-9 and PA-915 on normal mice were evaluated by the elevated plus maze test.
Male C57BL/6J mice (8 to 12 weeks old) were acclimatized to a laboratory (illuminance: 50 lx) for 60 minutes. Then, a vehicle (10% DMSO solution; dissolved in saline; n=8), PA-9 (30 mg/kg; n=8) or PA-915 (30 mg/kg; n=7) was intraperitoneally administered thereto (0.1 mL/10 g). After a lapse of 60 minutes after administration, the test was conducted for 5 minutes. The results are shown in FIG. 7 (A: total distance traveled, B: the number of open arm entries, C: time spent in the open arm).

Compound	effect on single-restraint stress-induced anxiety-like behavior (light-dark test) [1]	pharmacological action in open field test (total distance traveled, center zone entries, time in center zone) [2]	pharmacological action in elevated plus maze test (total distance, open arm entries, time in open arm) [3]
O=C(NCCc1c[nH]cn1)C1CC(=O)N(c2n[nH]c3ccccc23)C1 (stereo not drawn) [PA-9]	improving effects	no pharmacological action	no pharmacological action
Nc1nc2c(c(=O)[nH]1)C(c1cccc(OC(F)(F)F)c1)CC(=O)N2 (stereo not drawn) [PA-81004, 2-Amino-5-(3-trifluoromethoxyphenyl)-5,8-dihydro-3H,6H-pyrido[2,3-d]pyrimidine-4,7-dione]	improving effects	no pharmacological action	no pharmacological action
C=CCOc1ccc(C2CC(=O)Nc3nc(N)[nH]c(=O)c32)cc1OC (stereo not drawn) [PA-8]	improving effects	no pharmacological action	no pharmacological action
